According to patent US12129312B2, “Peptide compound, application thereof and composition containing same” (priority 2017, dated 2024):
Numbered stars: 1 amine (or outer) side, 2 acyl side, 3 side chain; on linkers, the order of the positions; unused ones are H or OH. Square brackets hold non-standard residues; d marks the D form. Peptide text beside a SMILES is read from it. * marks the point of attachment. Benzoyl(4-CF3) = O=C(c1ccc(C(F)(F)F)cc1)*; PEG8 = NCCOCCOCCOCCOCCOCCOCCOCCOCCC(=O)O; X6 = CCCN([C@@H](CC(C)C)C(=O)[*:2])[*:1]; Benzoyl(2,3-diOH) = O=C(c1cccc(O)c1O)*; 1Nal = N[C@@H](Cc1cccc2ccccc12)C(=O)O; 2Nal = N[C@@H](Cc1ccc2ccccc2c1)C(=O)O; dNMeY = CN[C@H](Cc1ccc(O)cc1)C(=O)O; Palmitoyl = CCCCCCCCCCCCCCCC(=O)*; Tic = O=C(O)[C@@H]1Cc2ccccc2CN1; NMeL = CN[C@@H](CC(C)C)C(=O)O; NHPhenethyl = c1ccc(CCN*)cc1; NMeS = CN[C@@H](CO)C(=O)O; Nle = CCCC[C@H](N)C(=O)O; Thz = O=C(O)[C@@H]1CSCN1; CO = O=C([*:1])[*:2]; βAla = NCCC(=O)O

These compounds were tested against T1, human Chemokine like receptor 1 (Homo sapiens, UniProt Q99788) (assay: Activation of Tango CMKLR1-bla U2OS cells (beta-lactamase FRET reporter)). Settings: not given.
T1 construct: host or cells: U2OS (Tango CMKLR1-bla U2OS)
T1 sequence (Q99788 1-373): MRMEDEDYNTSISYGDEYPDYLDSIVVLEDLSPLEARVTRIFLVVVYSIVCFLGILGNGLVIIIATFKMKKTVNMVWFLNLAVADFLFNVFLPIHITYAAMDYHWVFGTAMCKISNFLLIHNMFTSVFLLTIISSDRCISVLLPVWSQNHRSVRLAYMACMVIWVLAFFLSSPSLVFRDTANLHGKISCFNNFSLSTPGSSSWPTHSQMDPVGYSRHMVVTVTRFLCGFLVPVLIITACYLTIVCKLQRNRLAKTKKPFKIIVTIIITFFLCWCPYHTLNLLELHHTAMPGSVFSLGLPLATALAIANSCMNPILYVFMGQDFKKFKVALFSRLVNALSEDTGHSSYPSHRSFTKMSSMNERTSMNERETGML
Format: cell-based
Method in brief: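 Agonist mode in Tango CMKLR1-bla U2OS cells, 10000 cells/well seeded overnight, then 10-point 3-fold compound dilutions from 10 mM DMSO stock applied for 4 h at 37 °C, 5% CO2. Beta-lactamase reporter read with CCF4-AM FRET substrate; peptide (D-Tyr)-Phe-Leu-Pro-(D-Ser)-Gln-Phe-(D-Ala)-Tic-Ser served as positive control.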

Compound	EC50 [nM]
CC(C)C[C@@H](C(=O)N1CCC[C@H]1C(=O)N[C@H](CO)C(=O)N[C@@H](CCC(N)=O)C(=O)N[C@@H](Cc1cccc2ccccc12)C(=O)N[C@H](C)C(=O)N1Cc2ccccc2C[C@H]1C(=O)N[C@@H](CO)C(=O)O)N(C)C(=O)[C@H](Cc1ccccc1)NC(=O)[C@H](N)Cc1ccc(O)cc1 [YW-165, (D-Tyr)-Phe-(NMe-Leu)-Pro-(D-Ser)-Gln-1Nal-(D-Ala)-Tic-Ser-OH] (H-[dY]F[NMeL]P[dS]Q[1Nal][dA][Tic]S-OH)	1.5
CCCC[C@H](NC(=O)[C@H](Cc1ccccc1)NC(=O)[C@H](N)Cc1ccc(O)cc1)C(=O)N1CCC[C@H]1C(=O)N[C@H](CO)C(=O)N[C@@H](CCC(N)=O)C(=O)N[C@@H](Cc1ccccc1)C(=O)N[C@H](C)C(=O)N1Cc2ccccc2C[C@H]1C(=O)N[C@@H](CO)C(=O)O [YW-197, (D-Tyr)-Phe-Nle-Pro-(D-Ser)-Gln-Phe-(D-Ala)-Tic-Ser] (H-[dY]F[Nle]P[dS]QF[dA][Tic]S-OH)	10

Same assay, conditions: determination by the method of Effect Embodiment 1; read-out: EC50

Compound	EC50 [nM]
CC(C)C[C@H](NC(=O)[C@H](Cc1ccccc1)NC(=O)[C@@H](Cc1ccc(O)cc1)NC(=O)c1cccc(O)c1O)C(=O)N1CCC[C@H]1C(=O)N[C@H](CO)C(=O)N[C@@H](CCC(N)=O)C(=O)N[C@@H](Cc1ccccc1)C(=O)N[C@H](C)C(=O)N1Cc2ccccc2C[C@H]1C(=O)N[C@@H](CO)C(=O)O [YW-127, 2,3-dihydroxybenzoyl-(D-Tyr)-Phe-Leu-Pro-(D-Ser)-Gln-Phe-(D-Ala)-Tic-Ser-OH] ({Benzoyl(2,3-diOH)}-[dY]FLP[dS]QF[dA][Tic]S-OH)	10
CC(C)C[C@@H](C(=O)N1CCC[C@H]1C(=O)N[C@H](CO)C(=O)N[C@@H](CCC(N)=O)C(=O)N[C@@H](Cc1ccccc1)C(=O)N[C@H](C)C(=O)N1Cc2ccccc2C[C@H]1C(=O)N[C@@H](CO)C(=O)O)N(C)C(=O)[C@H](Cc1ccccc1)NC(=O)[C@@H](Cc1ccc(O)cc1)NC(=O)c1ccc(C(F)(F)F)cc1 [YW-195, 4-(trifluoromethyl)benzoyl-(D-Tyr)-Phe-(NMe-Leu)-Pro-(D-Ser)-Gln-Phe-(D-Ala)-Tic-Ser] ({Benzoyl(4-CF3)}-[dY]F[NMeL]P[dS]QF[dA][Tic]S-OH)	0.8
CC(C)C[C@H](NC(=O)[C@H](Cc1ccccc1)NC(=O)[C@@H](Cc1ccc(O)cc1)NC(=O)NCCc1ccccc1)C(=O)N1CCC[C@H]1C(=O)N[C@H](CO)C(=O)N[C@@H](CCC(N)=O)C(=O)N[C@@H](Cc1ccccc1)C(=O)N[C@H](C)C(=O)N1Cc2ccccc2C[C@H]1C(=O)N[C@@H](CO)C(=O)O [YW-72, Phenethylcarbamoyl-(D-Tyr)-Phe-Leu-Pro-(D-Ser)-Gln-Phe-(D-Ala)-Tic-Ser-OH] ({NHPhenethyl-CO}-[dY]FLP[dS]QF[dA][Tic]S-OH)	45
CCCN(C(=O)[C@H](Cc1ccccc1)NC(=O)[C@H](N)Cc1ccc(O)cc1)[C@@H](CC(C)C)C(=O)N1CCC[C@H]1C(=O)N[C@H](CO)C(=O)N[C@@H](CCC(N)=O)C(=O)N[C@@H](Cc1ccccc1)C(=O)N[C@H](C)C(=O)N1Cc2ccccc2C[C@H]1C(=O)N[C@@H](CO)C(=O)O [YW-184, (D-Tyr)-Phe-(NPr-Leu)-Pro-(D-Ser)-Gln-Phe-(D-Ala)-Tic-Ser] (H-[dY]F[X6]P[dS]QF[dA][Tic]S-OH)	16
CC(C)C[C@H](NC(=O)[C@H](Cc1ccccc1)NC(=O)[C@H](N)Cc1ccc(O)cc1)C(=O)N1CCC[C@H]1C(=O)N[C@H](CO)C(=O)N[C@@H](CCC(N)=O)C(=O)N[C@@H](Cc1ccccc1)C(=O)N[C@H](C)C(=O)N1Cc2ccccc2C[C@H]1C(=O)N[C@@H](CO)C(N)=O [YW-189, (D-Tyr)-Phe-Leu-Pro-(D-Ser)-Gln-Phe-(D-Ala)-Tic-Ser-NH2] (H-[dY]FLP[dS]QF[dA][Tic]S-NH2; N-terminus assumed)	6.8

Further lines, results first:

EC50 [nM]	Compound
2.1	CCCCCCCCCCCCCCCC(=O)NCCOCCOCCOCCOCCOCCOCCOCCOCCC(=O)NCC(=O)NCC(=O)N(C)[C@H](Cc1ccc(O)cc1)C(=O)N[C@@H](Cc1ccccc1)C(=O)N(C)[C@@H](CC(C)C)C(=O)N1CCC[C@H]1C(=O)N[C@H](CO)C(=O)N[C@@H](CCC(N)=O)C(=O)N[C@@H](Cc1ccc2ccccc2c1)C(=O)N[C@H](C)C(=O)N1Cc2ccccc2C[C@H]1C(=O)N(C)[C@@H](CO)C(=O)O [YW-178, Palm-PEG8-Gly-Gly-(D-NMe-Tyr)-Phe-(NMe-Leu)-Pro-(D-Ser)-Gln-2Nal-(D-Ala)-Tic-(NMe-Ser)] ({Palmitoyl-PEG8}-GG[dNMeY]F[NMeL]P[dS]Q[2Nal][dA][Tic][NMeS]-OH)
0.9	CN[C@H](Cc1ccc(O)cc1)C(=O)N[C@@H](Cc1ccccc1)C(=O)N(C)[C@@H](CC(C)C)C(=O)N1CSC[C@H]1C(=O)N[C@H](CO)C(=O)N[C@@H](CCC(N)=O)C(=O)N[C@@H](Cc1cccc2ccccc12)C(=O)N[C@H](C)C(=O)N1Cc2ccccc2C[C@H]1C(=O)N(C)[C@@H](CO)C(=O)O [YW-142, (D-NMe-Tyr)-Phe-(NMe-Leu)-Thz-(D-Ser)-Gln-1Nal-(D-Ala)-Tic-(NMe-Ser)-OH] (H-[dNMeY]F[NMeL][Thz][dS]Q[1Nal][dA][Tic][NMeS]-OH; N-terminus assumed)
2.2	CN[C@H](Cc1ccc(O)cc1)C(=O)N[C@@H](Cc1ccccc1)C(=O)N(C)[C@@H](CC(C)C)C(=O)N1CCC[C@H]1C(=O)N[C@H](CO)C(=O)N[C@@H](CCC(N)=O)C(=O)N[C@@H](Cc1ccccc1)C(=O)N[C@H](C)C(=O)N1Cc2ccccc2C[C@H]1C(=O)N[C@@H](CO)C(=O)O [YW-163, (D-NMe-Tyr)-Phe-(NMe-Leu)-Pro-(D-Ser)-Gln-Phe-(D-Ala)-Tic-Ser-OH] (H-[dNMeY]F[NMeL]P[dS]QF[dA][Tic]S-OH)
2.6	CN[C@H](Cc1ccc(O)cc1)C(=O)N[C@@H](Cc1ccccc1)C(=O)N(C)[C@@H](CC(C)C)C(=O)N1CCC[C@H]1C(=O)N[C@H](CO)C(=O)N[C@@H](CCC(N)=O)C(=O)N[C@@H](Cc1cccc2ccccc12)C(=O)N[C@H](C)C(=O)N1Cc2ccccc2C[C@H]1C(=O)N(C)[C@@H](CO)C(=O)O [YW-162, (D-NMe-Tyr)-Phe-(NMe-Leu)-Pro-(D-Ser)-Gln-1Nal-(D-Ala)-Tic-NMeSer-OH] (H-[dNMeY]F[NMeL]P[dS]Q[1Nal][dA][Tic][NMeS]-OH)
0.8	CN[C@H](Cc1ccc(O)cc1)C(=O)N[C@@H](Cc1ccccc1)C(=O)N(C)[C@@H](CC(C)C)C(=O)N1CCC[C@H]1C(=O)N[C@H](CO)C(=O)N[C@@H](CCC(N)=O)C(=O)N[C@@H](Cc1ccc2ccccc2c1)C(=O)N[C@H](C)C(=O)N1Cc2ccccc2C[C@H]1C(=O)N[C@@H](CO)C(=O)O [YW-167, (D-NMe-Tyr)-Phe-(NMe-Leu)-Pro-(D-Ser)-Gln-2Nal-(D-Ala)-Tic-Ser-OH] (H-[dNMeY]F[NMeL]P[dS]Q[2Nal][dA][Tic]S-OH)
2.1	CCCCCCCCCCCCCCCC(=O)NCCOCCOCCOCCOCCOCCOCCOCCOCCC(=O)NCCC(=O)NCCC(=O)N(C)[C@H](Cc1ccc(O)cc1)C(=O)N[C@@H](Cc1ccccc1)C(=O)N(C)[C@@H](CC(C)C)C(=O)N1CCC[C@H]1C(=O)N[C@H](CO)C(=O)N[C@@H](CCC(N)=O)C(=O)N[C@@H](Cc1ccc2ccccc2c1)C(=O)N[C@H](C)C(=O)N1Cc2ccccc2C[C@H]1C(=O)N(C)[C@@H](CO)C(=O)O [YW-179, Palm-PEG8-(beta-Ala)-(beta-Ala)-(D-NMeTyr)-Phe-(NMe-Leu)-Pro-(D-Ser)-Gln-2Nal-(D-Ala)-Tic-(NMe-Ser)] ({Palmitoyl-PEG8-βAla-βAla}-[dNMeY]F[NMeL]P[dS]Q[2Nal][dA][Tic][NMeS]-OH)
5	CC(C)C[C@@H](C(=O)N1CCC[C@H]1C(=O)N[C@H](CO)C(=O)N[C@@H](CCC(N)=O)C(=O)N[C@@H](Cc1ccccc1)C(=O)N[C@H](C)C(=O)N1Cc2ccccc2C[C@H]1C(=O)N(C)[C@@H](CO)C(=O)O)N(C)C(=O)[C@H](Cc1ccccc1)NC(=O)[C@H](N)Cc1ccc(O)cc1 [YW-166, (D-Tyr)-Phe-(NMe-Leu)-Pro-(D-Ser)-Gln-Phe-(D-Ala)-Tic-(NMe-Ser)-OH] (H-[dY]F[NMeL]P[dS]QF[dA][Tic][NMeS]-OH)
